Assay results as given in patent US9062039B2, “Therapeutic compounds” (CHANGZHOU LE SUN PHARMACEUTICALS LIMITED, priority 2012, dated 2015).
Read-outs that look alike come from different tables or passages of the source.

Key:
[1] = Determination of pharmacokinetics in mice; type: in vivo; conditions: male, CD1, mouse, plasma; Mice PK, 10 mg/kg, po; read-out: Oral bioavailability F %
Experimental: For PK measurements male adult CD1 mice weighing 25-30 g (Charles River) are split into weight matched groups of 3 per group. The mice were held at the scruff of the neck and orally dosed via a metal gavage directly into the stomach. Immediately after dosing mice are returned to their cage, plastic box cage with sawdust bedding, and food and water available. Blood samples were collected from the mouse under anaesthesia by cardiac puncture using a 1 mL syringe and 25 gauge needle at time zero and at intervals up to 8 h. Harvested blood was centrifuged at 7000×G for 2 minutes, and the plasma aspirated and frozen at −20° C. until analysis. Quantitative compound level analysis was carried out using LC-MS/MS methods. Pharmacokinetic data derived using PK Solutions 2.0, non-compartmental analysis. Oral bioavailability (% F) was calculated by taking the ratio of dose-normalised AUC values from oral versus parenteral dosing.

Normal B-cells = experiment: Ex vivo CLL assay (Annexin V apoptosis, flow cytometry); type: cell-based, human; conditions: up to 48 h
Normal T-cells = experiment: as above; type: cell-based, human; conditions: up to 48 h
Patient CLL B-cells = experiment: as above; type: cell-based, human; conditions: up to 48 h
[2] = tested on: MCF-7 (human breast carcinoma); experiment: 48h MTT proliferation assay; type: cell-based
[3] = tested on: HCT-116 (human colon carcinoma); experiment: 48h MTT proliferation assay; type: cell-based
[4] = tested on: primary CLL cells co-cultured with CD40L-expressing mouse embryonic fibroblasts; experiment: Synergy between CDKI-73 and fludarabine under CD40L co-culture; type: cell-based, human; conditions: CDKI-73 combined with fludarabine, other two additive
Experimental: Lymphocytes were separated using Ficoll-Hypaque (Sigma, Poole, UK) and autologous plasma was collected for use in some experiments. Separated lymphocytes were maintained in RPMI medium supplemented with 10% fetal bovine serum (FBS), penicillin (50 U/ml), streptomycin (50 μg/ml) and recombinant human IL-4 (R and D Systems, Abingdon, UK) (5 ng/ml). […] The significance of differences between experimental conditions was determined using the Student's t test for paired and unpaired observations. To assess the interaction between agents, the median effect method was employed using CalcuSyn software (CalcuSyn; Biosoft International, Ferguson, Mo.). The combination index was calculated for the two-drug combination using an experimentally determined fixed concentration ratio.

[5] = tested on: MCL1, BCL2, XIAP, CCND1 and CCND2 expression in CLL cells; experiment: Gene expression profiling (Affymetrix microarray); type: cell-based, human
Description: The detailed protocol for sample preparation and microarray processing is available from Affymetrix (http://www.affymetrix.com). […] After second strand synthesis, the resulting cDNA was subjected to an in vitro transcription reaction using a Bioarray kit (Enzo Diagnostics, New York, N.Y., USA) to generate biotinylated cRNA. This was subsequently fragmented and hybridized to the Affymetrix U133 2.0 Gene Chips. After hybridization, each microarray was washed, stained and scanned with an argon-ion confocal laser, with excitation at 488 nm and detection at 570 nm. The significance of differences between experimental conditions was determined using the Student's t test for paired and unpaired observations. To assess the interaction between agents, the median effect method was employed using CalcuSyn software (CalcuSyn; Biosoft International, Ferguson, Mo.). The combination index was calculated for the two-drug combination using an experimentally determined fixed concentration ratio. […] Affymetrix gene expression data were processed using Partek Genomics Suite (Partek Inc. Saint Louis, USA).

[6] = tested on: MCL1 transcription in CLL cells; experiment: Real-time reverse transcription-PCR of MCL1; type: cell-based, human; conditions: 4 h, with and without CD40L co-culture
Experimental: CDKI-73, 100:1) for 4 h using the method described by Walsby et al. (Oncotarget 3, 525-34 (2012)).

[7] = tested on: primary CLL cells co-cultured with CD40L-expressing mouse embryonic fibroblasts; conditions: fludarabine alone; Walsby et al. 2012; cited from earlier work
[8] = MCF7, read-out: 48h-MTT Anti-proliferative activity GI50 MCF-7 (human breast carcinoma), Table 2, 48 h
[9] = MCF7, read-out: 48h-MTT cytotoxicity GI50 MCF-7, Table 1, 48 h
[10] = HCT-116, read-out: 48h-MTT Anti-proliferative activity GI50 HCT-116 (human colon carcinoma), Table 2, 48 h
[11] = HCT-116, read-out: 48h-MTT cytotoxicity GI50 HCT-116, Table 1, 48 h

## CNc1nc(C)c(-c2nc(Nc3cccc(S(N)(=O)=O)c3)ncc2C#N)s1 [Comparator, 3-(5-cyano-4-(4-methyl-2-(methylamino)thiazol-5-yl)pyrimidin-2-ylamino)benzenesulfonamide, reference compound]
[1]
  bioavailability: 7%
Normal B-cells
  Ex vivo efficacy, LD50 Normal B-cells: 89 µM
Normal T-cells
  Ex vivo efficacy, LD50 Normal T-cells: 350 µM
Patient CLL B-cells
  Ex vivo efficacy, LD50 Patient CLL B-cells: 0.43 µM
[2]; [8]
  GI50: 480 nM
[2]; [9]
  GI50: 480 nM
[3]; [10]
  GI50: 430 nM
[3]; [11]
  GI50: 440 nM

## CNc1nc(C)c(-c2nc(Nc3cccc(S(N)(=O)=O)c3)ncc2F)s1 [Example 1, 3-(5-Fluoro-4-(4-methyl-2-(methylamino)thiazol-5-yl)pyrimidin-2-ylamino)benzene sulfonamide]
[4]
  samples tested that showed cytotoxic synergy: 8/10
[1]
  bioavailability: 56%
Normal B-cells
  Ex vivo efficacy, LD50 Normal B-cells: 40.5 µM
Normal T-cells
  Ex vivo efficacy, LD50 Normal T-cells: 506.3 µM
[5]; combination 0.1 μM CDKI-73 and 10 μM fludarabine, 4 h
  expression of MCL1, BCL2, XIAP and CCND1 and D2: marked repression
[5]; single agent, 0.1 μM CDKI-73, 4 h
  expression of MCL1, BCL2, XIAP and CCND1 and CCND2: down regulated
Patient CLL B-cells
  Ex vivo efficacy, LD50 Patient CLL B-cells: 0.08 µM
[2]; [8]
  GI50: 50 nM
[2]; [9]
  GI50: 30 nM
[3]; [10]
  GI50: 60 nM
[3]; [11]
  GI50: 30 nM
[6]; CDKI-73 in combination with fludarabine (100:1)
  MCL1 transcription (QRT-PCR): significantly inhibited
[6]; single agent
  MCL1 transcription (QRT-PCR): significantly inhibited

## CNc1nc(C)c(-c2nc(Nc3cccc(S(N)(=O)=O)c3)ncc2Cl)s1 [Example 3, 3-(5-chloro-4-(4-methyl-2-(methylamino)thiazol-5-yl)pyrimidin-2-ylamino)benzene sulfonamide]
[2]; [9]
  GI50: 60 nM
[3]; [11]
  GI50: 30 nM

## Nc1nc(F)nc2c1ncn2[C@@H]1O[C@H](CO)[C@@H](O)[C@@H]1O [fludarabine]
[7]
  cytotoxic effects of fludarabine under CD40L co-culture: completely abrogates
